Measured values: US20260042755A1, “GPR6 INVERSE AGONISTS” (MapLight Therapeutics, Inc., priority 2022, published 2026)

What was measured:
GPR6 = target: T1, GPR6 (Homo sapiens, UniProt P46095); assay: GPR6 antagonist functional cAMP assay (LANCE Ultra cAMP TR-FRET, CHO cells stably expressing GPR6); type: cell-based
T1 construct: expressed in transfected cells; host or cells: CHO cells
Experimental: (§1) Example 56. GPR6 and GPR3 Antagonist Functional cAMP Assay
(§2) CHO cells stably expressing GPR6 or GPR3 receptors were dissociated from cell culture flasks and incubated for 2 h at 37° C. in a 10 cm dish in a humidified incubator. Cells were dissociated, counted to have 1e6 cells/mL (4.5e6 cells needed/384-well plate), washed once in starved media, than in D-PBS and finally suspended in assay buffer (Krebs-Ringer Bicarbonate Buffer with 1800 mg/L glucose, without calcium chloride and sodium bicarbonate (Sigma) in the presence of 0.1% BSA and 150 μM of Ro 20-1724 Phosphodiesterase inhibitor).
(§3) Cells in suspension from above were plated in 384-well white Optiplate (PerkinElmer) at 10,000 cells/well/10 μl, briefly centrifuged prior direct addition of compounds ([…]) in 10 mM DMSO using a Tecan D300e Digital Dispenser, final DMSO in each well was normalized to 0.1%. Cells were incubated in the presence of compounds for 45 min at 37° C. in a humidified incubator.
(§4) To measure cAMP levels, LANCE® Ultra cAMP assay (Perkin Elmer), a homogeneous time-resolved fluorescence resonance energy transfer (TR-FRET) immunoassay was used following manufacturer's recommendations. Plates were shaken for 1 h at room temperature before reading on a Tecan InfiniteF200Pro multi-mode plate reader using standard FRET settings (Excitation 340 nm, Emission at 615 nm). FRET values were reported as readings obtained at 665 nm. Data were normalized to DMSO (0.1%) and reference compounds (100%) and fit to a 4-parameter logistical fit to generate antagonist IC50s.

GPR3 = target: T2, GPR3 (Homo sapiens, UniProt P46089); assay: GPR3 antagonist functional cAMP assay (LANCE Ultra cAMP TR-FRET, CHO cells stably expressing GPR3); type: cell-based
T2 construct: expressed in transfected cells; host or cells: CHO cells
Experimental: as §1, §2, §3, §4

[1] = CHO cells stably expressing GPR6, cAMP assay
[2] = CHO cells stably expressing GPR3, cAMP assay
[3] = CHO cells stably expressing GPR6, cAMP assay (Example 24)
[4] = CHO cells stably expressing GPR3, cAMP assay (Example 24)
[5] = procedure as described in Example 24

T2 sequence (P46089 whole entry, species assumed): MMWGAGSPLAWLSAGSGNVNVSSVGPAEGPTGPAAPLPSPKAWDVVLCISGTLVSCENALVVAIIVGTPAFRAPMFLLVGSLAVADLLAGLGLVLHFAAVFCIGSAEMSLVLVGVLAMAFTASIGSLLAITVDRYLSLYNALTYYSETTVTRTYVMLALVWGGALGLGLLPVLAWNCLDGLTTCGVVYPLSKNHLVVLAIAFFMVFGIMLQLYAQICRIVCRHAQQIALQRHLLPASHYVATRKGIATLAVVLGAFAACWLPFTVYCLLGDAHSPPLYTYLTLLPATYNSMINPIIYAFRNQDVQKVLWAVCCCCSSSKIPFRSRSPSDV
T1 sequence (P46095 whole entry): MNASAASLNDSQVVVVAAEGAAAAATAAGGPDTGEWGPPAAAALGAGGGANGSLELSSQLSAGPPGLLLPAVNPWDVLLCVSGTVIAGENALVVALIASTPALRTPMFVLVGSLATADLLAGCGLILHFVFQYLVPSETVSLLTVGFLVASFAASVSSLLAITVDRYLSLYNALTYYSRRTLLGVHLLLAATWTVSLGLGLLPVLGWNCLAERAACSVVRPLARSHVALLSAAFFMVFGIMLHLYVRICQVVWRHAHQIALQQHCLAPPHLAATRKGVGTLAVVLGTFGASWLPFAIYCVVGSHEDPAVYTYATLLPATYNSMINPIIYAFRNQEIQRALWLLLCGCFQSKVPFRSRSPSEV

| SMILES | IC50 (GPR6; procedure of Example 24) [nM] | IC50 (GPR3; procedure of Example 24) [nM] | IC50 (GPR6; [3]) [nM] | IC50 (GPR3; [4]) [nM] | other results |
| --- | --- | --- | --- | --- | --- |
| COCC(C)(O)c1cc2nc(-c3cnn(C)c3)c(N3CCC(Oc4ccc(F)cc4F)CC3)nc2cn1 (stereo not drawn) [Compound 652, 2-{3-[4-(2,4-difluorophenoxy)-1-piperidyl]-2-(1-methyl-4-pyrazolyl)-1,4,6-triaza-7-naphthyl}-1-methoxy-2-propanol] | < 100 | 1000 to 30000 | – | – | – |
| CC(=O)N1CCc2nc(N3CCN(Cc4cccc(=O)[nH]4)CC3)c(-c3cnn(C)c3)nc2C1 [Compound 530, 6-({4-[6-acetyl-3-(1-methyl-4-pyrazolyl)-5,6,7,8-tetrahydro-1,4,6-triaza-2-naphthyl]-1-piperazinyl}methyl)-2(1H)-pyridinone] | – | – | – | – | IC50 (GPR6; [1]): ≥ 30000 nM; IC50 (GPR3; [2]): ≥ 30000 nM |
| CC(=O)N1CCc2nc(N3CCN(Cc4ccoc4)CC3)c(-c3cnn(C)c3)nc2C1 [Compound 529, 1-(2-{4-[(3-furyl)methyl]-1-piperazinyl}-3-(1-methyl-4-pyrazolyl)-5,6,7,8-tetrahydro-1,4,6-triaza-6-naphthyl)-1-ethanone] | – | – | – | – | IC50 (GPR6; [1]): 1000 to 30000 nM; IC50 (GPR3; [2]): ≥ 30000 nM |
| CC(C)(O)C(O)c1cc2nc(-c3cnn(C(F)F)c3)c(N3CCN(Cc4ccccc4F)CC3)nc2cn1 (single isomer, unassigned) [Compound 668, 1-{2-[1-(difluoromethyl)-4-pyrazolyl]-3-{4-[(o-fluorophenyl)methyl]-1-piperazinyl}-1,4,6-triaza-7-naphthyl}-2-methyl-1,2-propanediol] | < 100 | 1000 to 30000 | – | – | – |
| Cn1cc(-c2nc3cnccc3nc2N2CCN(CC3CCCC(F)(F)C3)CC2)cn1 (stereo not drawn) [Compound 214, 1-[(3,3-difluorocyclohexyl)methyl]-4-[3-(1-methyl-1H-pyrazol-4-yl)pyrido[3,4-b]pyrazin-2-yl]piperazine] | – | – | 1000 to 30000 | 1000 to 30000 | – |
| OCCN1CCc2nc(N3CCC(Oc4ccc(F)cc4F)CC3)c(-c3cnn(C4CCCCO4)c3)nc2C1 (stereo not drawn) [Compound 140, 2-{2-[4-(2,4-difluorophenoxy)piperidin-1-yl]-3-[1-(oxan-2-yl)-1H-pyrazol-4-yl]-5H,6H,7H,8H-pyrido[3,4-b]pyrazin-6-yl}ethan-1-ol] | – | – | 1000 to 30000 | 1000 to 30000 | – |
| CNC(=O)c1cccc(-c2nc3c(nc2N2CCC(Oc4ccc(F)cc4F)CC2)CCN(C(C)=O)C3)n1 [Compound 132, 6-{6-acetyl-2-[4-(2,4-difluorophenoxy)piperidin-1-yl]-5H,6H,7H,8H-pyrido[3,4-b]pyrazin-3-yl}-N-methylpyridine-2-carboxamide] | – | – | 1000 to 30000 | 1000 to 30000 | – |
| Cn1cc(-c2nc3cn(C)c(=O)cc3nc2N2CCC(Oc3ccc(F)cc3F)CC2)cn1 [Compound 447, 2-[4-(2,4-difluorophenoxy)piperidin-1-yl]-6-methyl-3-(1-methyl-1H-pyrazol-4-yl)-6H,7H-pyrido[3,4-b]pyrazin-7-one] | – | – | 1000 to 30000 | 1000 to 30000 | – |
| Cn1cc(-c2nc3cnccc3nc2N2CC[C@H](Oc3ccc(F)cc3F)[C@H](F)C2)cn1 (single isomer, unassigned) [Compound 332] | 1000 to 30000 | 1000 to 30000 | – | – | – |
| CC(=O)N1CCc2nc(N3CCC(Oc4ccc(F)cc4F)CC3)c(-c3cncc(N)n3)nc2C1 [Compound 465, 1-[3-(6-aminopyrazin-2-yl)-2-[4-(2,4-difluorophenoxy)piperidin-1-yl]-5H,6H,7H,8H-pyrido[3,4-b]pyrazin-6-yl]ethan-1-one] | – | – | 100 to 1000 | 1000 to 30000 | – |
| CC(C)(O)C(O)c1cc2nc(N3CCN(Cc4ccc(F)cc4F)CC3)c(-c3cnn(C(F)F)c3)nc2cn1 (stereo not drawn) [Compound 264, 1-{3-[1-(difluoromethyl)-1H-pyrazol-4-yl]-2-{4-[(2,4-difluorophenyl)methyl]piperazin-1-yl}pyrido[3,4-b]pyrazin-7-yl}-2-methylpropane-1,2-diol] | – | – | < 100 | 1000 to 30000 | – |
| C[C@H](O)[C@H](O)c1cc2nc(N3CCC(Oc4ccc(F)cc4F)CC3)c(-c3cnn(C)c3)nc2cn1 (single isomer, unassigned) [Compound 471] | – | – | 100 to 1000 | 1000 to 30000 | – |
| CC(C)(O)[C@@](C)(O)c1cc2nc(N3CCN(Cc4ccccc4F)CC3)c(-c3cnn(C(F)F)c3)nc2cn1 (single isomer, unassigned) [Compound 670] | 100 to 1000 | 100 to 1000 | – | – | – |
| C=CC(=O)N1CCc2nc(N3CCC(Oc4ccc(F)cc4F)CC3)c(-c3cnn(C4CCCCO4)c3)nc2C1 (stereo not drawn) [Compound 185, 1-{2-[4-(2,4-difluorophenoxy)piperidin-1-yl]-3-[1-(oxan-2-yl)-1H-pyrazol-4-yl]-5H,6H,7H,8H-pyrido[3,4-b]pyrazin-6-yl}prop-2-en-1-one] | – | – | 100 to 1000 | 1000 to 30000 | – |
| CC(=O)N1CCc2nc(N3CCC(=Cc4ccccc4F)CC3)c(-c3cnn(C)c3)nc2C1 [Compound 623, 1-(2-{4-[(o-fluorophenyl)methylene]-1-piperidyl}-3-(1-methyl-4-pyrazolyl)-5,6,7,8-tetrahydro-1,4,6-triaza-6-naphthyl)-1-ethanone] | 100 to 1000 | 100 to 1000 | – | – | – |
| CC(C)(O)C(C)(O)c1cc2nc(-c3cnn(C4CC4)c3)c(N3CCC(Oc4ccc(F)cc4F)CC3)nc2cn1 (single isomer, unassigned) [Compound 721] | 100 to 1000 | 1000 to 30000 | – | – | – |
| O=C(C1CCCN1)N1CCc2nc(N3CCC(Oc4ccc(F)cc4F)CC3)c(-c3cn[nH]c3)nc2C1 (stereo not drawn) [Compound 178, 4-(2,4-difluorophenoxy)-1-[3-(1H-pyrazol-4-yl)-6-(pyrrolidine-2-carbonyl)-5H,6H,7H,8H-pyrido[3,4-b]pyrazin-2-yl]piperidine] | – | – | 100 to 1000 | 1000 to 30000 | – |
| CC(=O)N1CCc2nc(-c3cn[nH]c3)c(N3CCC(Oc4ccc(F)cc4F)CC3)nc2C1 [Compound 115, 1-{3-[4-(2,4-difluorophenoxy)piperidin-1-yl]-2-(1H-pyrazol-4-yl)-5H,6H,7H,8H-pyrido[3,4-b]pyrazin-6-yl}ethan-1-one] | – | – | 100 to 1000 | 1000 to 30000 | – |
| CCn1cc(-c2nc3c(nc2N2CCC(Oc4ccc(F)cc4F)CC2)CCN(C(=O)C2COC2)C3)cn1 [Compound 366, 4-(2,4-difluorophenoxy)-1-[3-(1-ethyl-1H-pyrazol-4-yl)-6-(oxetane-3-carbonyl)-5H,6H,7H,8H-pyrido[3,4-b]pyrazin-2-yl]piperidine] | 100 to 1000 | 1000 to 30000 | – | – | – |
| CNC(=O)c1ccc2nc(-c3nccn3COC)c(N3CCN(Cc4cc(Cl)ccc4Cl)CC3)nc2c1 [Compound 6, 3-{4-[(2,5-dichlorophenyl)methyl]piperazin-1-yl}-2-[1-(methoxymethyl)-1H-imidazol-2-yl]-N-methylquinoxaline-6-carboxamide] | – | – | – | – | IC50 (GPR6; [5]): 1000 to 30000 nM; IC50 (GPR3; [5]): 1000 to 30000 nM |
| COC1CCC(c2nc3c(nc2N2CCC(Oc4ccc(F)cc4F)CC2)CCN(C(=O)CO)C3)CC1 (stereo not drawn) [Compound 520, 1-{2-[4-(2,4-difluorophenoxy)-1-piperidyl]-3-(4-methoxycyclohexyl)-5,6,7,8-tetrahydro-1,4,6-triaza-6-naphthyl}-2-hydroxy-1-ethanone] | – | – | – | – | IC50 (GPR6; [1]): 1000 to 30000 nM; IC50 (GPR3; [2]): 1000 to 30000 nM |
| CC(=O)N1CCc2nc(N3CCC(Oc4ccc(F)cc4F)CC3)c(C3CCC(F)(F)CC3)nc2C1 [Compound 217, 1-[3-(4,4-difluorocyclohexyl)-2-[4-(2,4-difluorophenoxy)piperidin-1-yl]-5H,6H,7H,8H-pyrido[3,4-b]pyrazin-6-yl]ethan-1-one] | – | – | 1000 to 30000 | 1000 to 30000 | – |
| CC(=O)N1CCc2nc(N3CCN(Cc4ccnn4C)CC3)c(-c3cnn(C)c3)nc2C1 [Compound 525, 1-[3-(1-methyl-4-pyrazolyl)-2-{4-[(1-methyl-5-pyrazolyl)methyl]-1-piperazinyl}-5,6,7,8-tetrahydro-1,4,6-triaza-6-naphthyl]-1-ethanone] | – | – | – | – | IC50 (GPR6; [1]): ≥ 30000 nM; IC50 (GPR3; [2]): ≥ 30000 nM |
| COC(=O)c1cc2nc(N3CCC(Oc4ccc(F)cc4F)CC3)c(-c3cncc(OC)n3)nc2cn1 [Compound 221, methyl 2-[4-(2,4-difluorophenoxy)piperidin-1-yl]-3-(6-methoxypyrazin-2-yl)pyrido[3,4-b]pyrazine-7-carboxylate] | – | – | 1000 to 30000 | 1000 to 30000 | – |
| Cn1cc(-c2nc3cnc([C@H](O)C(C)(C)O)cc3nc2N2CCC(=Cc3ccc(F)cc3F)CC2)cn1 (single isomer, unassigned) [Compound 720] | < 100 | 1000 to 30000 | – | – | – |
| C=CC(=O)N1CCc2nc(N3CCC(Oc4ccc(F)cc4F)CC3)c(-c3cn[nH]c3)nc2C1 [Compound 203, 1-{2-[4-(2,4-difluorophenoxy)piperidin-1-yl]-3-(1H-pyrazol-4-yl)-5H,6H,7H,8H-pyrido[3,4-b]pyrazin-6-yl}prop-2-en-1-one] | – | – | < 100 | 1000 to 30000 | – |
| CC(=O)N1CCc2nc(N3CCN(Cc4ccc(F)c(F)c4)CC3)c(-c3cnn(C)c3)nc2C1 [Compound 321, 1-(2-{4-[(3,4-difluorophenyl)methyl]piperazin-1-yl}-3-(1-methyl-1H-pyrazol-4-yl)-5H,6H,7H,8H-pyrido[3,4-b]pyrazin-6-yl)ethan-1-one] | 1000 to 30000 | 1000 to 30000 | – | – | – |
